# Measurements from patent US20150111933A1, “Deuterated Thiazolidinone Analogues as Agonists for Follicle Stimulating Hormone Receptor” (Merck Patent GmbH, priority 2012, published 2015).
# What was measured:
# FSHR = target: T1, FSHR (Homo sapiens, UniProt P23945); assay: EC50 of cyclic AMP production in CHO FSHR cells + EC20 FSH (HTRF); assay type: cell-based; conditions: Cho-FSHR-LUC-1-1-43 cells; for Emax: 1 h, read-out: EC50 of cAMP production (% effect); for Emax / EC50 of cAMP production (% effect): + EC20 FSH, % effect in brackets; for EC50: + EC20 FSH (0.265 pM), 200 μM IBMX, 1 h at 37° C., read-out: EC50 of cAMP production
# T1 construct: expressed in transfected cells; host or cells: CHO (Cho-FSHR-LUC-1-1-43)
# T1 sequence (P23945 18-695): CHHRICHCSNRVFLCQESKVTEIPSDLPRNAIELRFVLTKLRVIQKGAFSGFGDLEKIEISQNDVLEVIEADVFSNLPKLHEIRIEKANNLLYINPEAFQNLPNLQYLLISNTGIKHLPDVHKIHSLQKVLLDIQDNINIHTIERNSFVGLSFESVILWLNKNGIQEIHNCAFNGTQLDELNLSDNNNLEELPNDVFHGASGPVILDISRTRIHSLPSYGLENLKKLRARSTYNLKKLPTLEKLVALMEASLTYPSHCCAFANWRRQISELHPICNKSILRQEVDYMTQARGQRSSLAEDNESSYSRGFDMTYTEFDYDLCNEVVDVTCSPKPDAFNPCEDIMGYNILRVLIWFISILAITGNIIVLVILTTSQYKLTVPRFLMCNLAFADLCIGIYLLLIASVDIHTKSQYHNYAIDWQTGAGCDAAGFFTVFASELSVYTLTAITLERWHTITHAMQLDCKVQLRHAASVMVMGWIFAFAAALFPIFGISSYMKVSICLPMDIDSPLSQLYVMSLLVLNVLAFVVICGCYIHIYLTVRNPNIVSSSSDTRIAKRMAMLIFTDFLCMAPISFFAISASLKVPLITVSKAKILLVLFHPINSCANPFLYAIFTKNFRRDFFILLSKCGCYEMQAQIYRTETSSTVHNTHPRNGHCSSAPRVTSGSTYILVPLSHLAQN
# Method: EC50 of Cyclic AMP Production in CHO FSHR Cells+EC20 FSH
# 2500 Cho-FSHR-LUC-1-1-43 cells were plated per well in 5 μL of phenol red free DMEM/F12+1% FBS. Cells were plated in 384 well, solid white low volume plates (Greiner 784075) by Multidrop. Cells were assayed by adding […] of 2×EC20 FSH/IBMX in DMEM/F12+0.1% BSA) by Multidrop to 2 μL of test compound stamped in 384 well plates (compounds are diluted 1:50). The final FSH concentration was 0.265 pM, and the final IBMX concentration was 200 μM. The compound plate map was as follows: Column 1: 2 μL of DMSO; Column 2: 2 μL of DMSO; Columns 3-12 and 13-24: 2 μL of test compound, diluted 1:4 in 100% DMSO, or 2 μL of FSH, diluted 1:4 in DMEM/F12+0.1% BSA. The starting concentration for FSH was 50 nM (final concentration was 0.5 nM). Furthermore, Column 23 contained 2 μL of EC100 FSH reference (100×) (diluted in DMEM/F12+0.1% BSA) at a final concentration of 0.5 nM, and Column 24 contained 2 μL of 1 mM AS707664/2 reference compound 2. 5 μL of compound+EC20 FSH mixture were transferred to cell plates (1:2 dilution into 5 μL of cell media) The plates were incubated at 37° C. for 1 h. 10 μL of mixed HTRF (CisBio #62AM4PEC) reagents were added per well and incubated at room temperature for 1 h. The plates were read on Envision using the cAMP HTRF—low volume 384 well protocol. The readout was the calculated fluorescence ratio (665 nm/620 nm).
# [1] = Intrinsic clearance (Clint) in human liver microsomes; assay type: in vitro ADME; conditions: 0.5 mg/mL protein, NADPH, up to 30 min, first value of human/rat; for microsomal CLint at 0.8 μM: human, liver microsomes, pH 7.4, human liver microsomes
# Method: (§1) Intrinsic Clearance (Clint) Assay Protocol:
# (§2) A Tecan Genesis workstation (RSP 150/8) was used for to perform the microsomal incubations. Analysis was carried out using a Waters ACQUITY UPLC system coupled to an ABSciex API3000 mass spectrometer. Data analysis was performed using Assay Explorer (Symyx).
# (§3) 0.1 M potassium phosphate buffer pH 7.4 containing 1 mM MgCl2 15 mM NADPH in phosphate buffer 4.4 mg protein/mL liver microsomes in phosphate buffer acetonitrile 20% DMSO in water
# (§4) Each experiment consists of 12 test and 2 reference compounds. The reference compounds are incubated as a cocktail. Dilution of test compounds was done in 2 steps from a 10 mM DMSO stock solution. First 4 μL stock solution was added to 196 μL of 20% DMSO in potassium phosphate buffer pH 7.4. In a second step 10 μL of the first dilution were added to […] potassium phosphate buffer and 100 μL internal standard solution to a final concentration of 0.8 μM. 100 μL of the final compound dilution were aliquoted into a 96 deep well plate. 12.5 μL liver microsomes were added to each well (0.5 mg/mL final protein concentration) and the samples preincubated for 5 min at 37° C. and 800 rpm agitation.
# (§5) After the preincubation, 250 μL cold acetonitrile were added to the 0 min samples to prevent a reaction. Following this, 12.5 μL NADPH solution were added to all wells to start the incubation, with the exception of the 0 min and 30 min controls without cofactor, where the NADPH was substituted for phosphate buffer.
# (§6) The incubations were stopped after 5, 10, 20 and 30 min by adding 250 μL cold acetonitrile to the individual wells.
# (§7) The quenched samples were then centrifuged at 4000 g for 1 h at 4° C. 100 μL of the supernatant were transferred into 96 well plates for analysis.
# (§8) The metabolic stability of each compound was determined by measurement of the change in LC-MS/MS peak area over time. Assay Explorer software was used to automatically calculate the slope k of the decline. The intrinsic clearance (Clint) of each compound was then calculated according to the formula:
# (§9) Clint (μL/min/mg protein)=k1000/protein concentration.
# [2] = Intrinsic clearance (Clint) in rat liver microsomes; assay type: in vitro ADME; conditions: 0.5 mg/mL protein, NADPH, up to 30 min, second value of human/rat; for microsomal CLint at 0.8 μM: rat, liver microsomes, pH 7.4, rat liver microsomes
# Method: as §1, §2, §3, §4, §5, §6, §7, §8, §9
molecule,measurement,setting,value
"[2H]C([2H])([2H])Oc1ccc(C([2H])([2H])C([2H])([2H])NC(=O)C[C@H]2S[C@@H](c3ccc(C#Cc4ccccc4)cc3)N(c3cccc(C(N)=O)c3)C2=O)cc1OC [Compound 3, 3-((2S,5R)-4-oxo-5-(2-oxo-2-((1,1,2,2-d4-2-(3-methoxy-4-(methoxy-d3)phenyl)ethyl)amino)ethyl)-2-(4-(phenylethynyl)phenyl)thiazolidin-3-yl)benzamide]",Emax,FSHR,97%
same,EC50,FSHR,1.7 nM
same,microsomal CLint at 0.8 μM,[1],111 µL/min/mg
same,microsomal CLint at 0.8 μM,[2],29 µL/min/mg
"[2H]c1c([2H])c([2H])c(C#Cc2c([2H])c([2H])c([C@H]3N(c4cccc(C(N)=O)c4)C(=O)[C@@H](CC(=O)NC([2H])([2H])C([2H])([2H])c4ccc(OC([2H])([2H])[2H])c(OCC)c4)[S@@+]3[O-])c([2H])c2[2H])c([2H])c1[2H] (single isomer, unassigned) [Compound 20]",Emax,FSHR,103%
same,EC50,FSHR,25 nM
same,microsomal CLint at 0.8 μM,[1],35 µL/min/mg
same,microsomal CLint at 0.8 μM,[2],18 µL/min/mg
"[2H]C([2H])([2H])Oc1ccc(C([2H])([2H])C([2H])([2H])NC(=O)C[C@H]2S[C@@H](c3ccc(C#Cc4ccccc4)cc3)N(c3cccc(C(N)=O)c3)C2=O)cc1OCC (single isomer, unassigned) [Compound 5]",Emax,FSHR,99%
same,EC50,FSHR,0.8 nM
same,microsomal CLint at 0.8 μM,[1],168 µL/min/mg
same,microsomal CLint at 0.8 μM,[2],45 µL/min/mg
"3-((2S,5R)-4-oxo-5-(2-oxo-2-((2-(3,4-dimethoxyphenyl-d6l)ethyl)amino)ethyl)-2-(4-(phenylethynyl)phenyl)thiazolidin-3-yl)benzamide [Compound 7]",EC50,FSHR,0.5 nM
same,EC50 of cAMP production (% effect),FSHR,(99) %
same,Clint (human),[1]; human liver microsomes,184 μL/min/mg protein
same,Clint (rat),[2]; rat liver microsomes,44 μL/min/mg protein
"CCOc1cc(CCNC(=O)C[C@H]2S[C@@H](c3ccc(C#Cc4ccccc4)cc3)N(c3cccc(C(N)=O)c3)C2=O)ccc1OC [Reference compound, reference compound]",Emax,FSHR,98%
same,EC50,FSHR,0.3 nM
same,microsomal CLint at 0.8 μM,[1],182 µL/min/mg
same,microsomal CLint at 0.8 μM,[2],120 µL/min/mg
"3-((2S,5R)-4-oxo-5-(2-oxo-2-((1,1,2,2-d4-2-(3-ethoxy-4-methoxy-d3-phenyl)ethyl)amino)ethyl)-2-(2,3,5,6-d4-4-(phenylethynyl)phenyl)thiazolidin-3-yl)benzamide [Compound 15]",EC50,FSHR,0.6 nM
same,EC50 of cAMP production (% effect),FSHR,(99) %
"[2H]C([2H])([2H])Oc1ccc(CCNC(=O)C[C@H]2S[C@@H](c3ccc(C#Cc4ccccc4)cc3)N(c3cccc(C(N)=O)c3)C2=O)cc1OCC (single isomer, unassigned) [Compound 6]",Emax,FSHR,96%
same,EC50,FSHR,0.7 nM
same,microsomal CLint at 0.8 μM,[1],208 µL/min/mg
same,microsomal CLint at 0.8 μM,[2],56 µL/min/mg
"[2H]c1c([2H])c([2H])c(C#Cc2ccc([C@@H]3S[C@H](CC(=O)NC([2H])([2H])C([2H])([2H])c4ccc(O)c(OC)c4)C(=O)N3c3cccc(C(N)=O)c3)cc2)c([2H])c1[2H] (single isomer, unassigned) [Compound 11]",Emax,FSHR,99%
same,EC50,FSHR,335 nM
"[2H]c1c([2H])c([2H])c(C#Cc2ccc([C@@H]3S[C@H](CC(=O)NC([2H])([2H])C([2H])([2H])c4ccc(OC([2H])([2H])[2H])c(OCC)c4)C(=O)N3c3cccc(C(N)=O)c3)cc2)c([2H])c1[2H] (single isomer, unassigned) [Compound 10]",Emax,FSHR,98%
same,EC50,FSHR,0.3 nM
same,microsomal CLint at 0.8 μM,[1],161 µL/min/mg
same,microsomal CLint at 0.8 μM,[2],23 µL/min/mg
"[2H]c1c([2H])c([2H])c(C#Cc2ccc([C@@H]3S[C@H](CC(=O)NCCc4ccc(O)c(O)c4)C(=O)N3c3cccc(C(N)=O)c3)cc2)c([2H])c1[2H] [Compound 12, 3-((2S,5R)-5-(2-((3,4-dihydroxyphenethyl)amino)-2-oxoethyl)-4-oxo-2-(4-((2,3,4,5,6-phenyl-d5)ethynyl)phenyl)thiazolidin-3-yl)benzamide]",Emax,FSHR,99%
same,EC50,FSHR,220 nM
"[2H]C([2H])(NC(=O)C[C@H]1S[C@@H](c2ccc(C#Cc3ccccc3)cc2)N(c2cccc(C(N)=O)c2)C1=O)C([2H])([2H])c1ccc(O)c(OC)c1 (single isomer, unassigned) [Compound 1]",Emax,FSHR,99%
same,EC50,FSHR,0.87 nM
same,microsomal CLint at 0.8 μM,[1],67 µL/min/mg
same,microsomal CLint at 0.8 μM,[2],31 µL/min/mg
"[2H]c1c([2H])c([C@@H]2S[C@H](CC(=O)NC([2H])([2H])C([2H])([2H])c3ccc(OC([2H])([2H])[2H])c(OC([2H])([2H])[2H])c3)C(=O)N2c2cccc(C(N)=O)c2)c([2H])c([2H])c1C#Cc1ccccc1 [Compound 17, 3-((2S,5R)-4-oxo-5-(2-oxo-2-((1,1,2,2-d4-2-(3,4-dimethoxy-d6-phenyl)ethyl)amino)ethyl)-2-(2,3,5,6-d4-4-(phenylethynyl)phenyl-d5)thiazolidin-3-yl)benzamide]",Emax,FSHR,100%
same,EC50,FSHR,0.9 nM
"[2H]c1c([2H])c([C@@H]2S[C@H](CC(=O)NC([2H])([2H])C([2H])([2H])c3ccc(OC([2H])([2H])[2H])c(OCC)c3)C(=O)N2c2cccc(C(N)=O)c2)c([2H])c([2H])c1C#Cc1ccccc1 (single isomer, unassigned) [Compound 16]",Emax,FSHR,100%
same,EC50,FSHR,0.7 nM
"[2H]c1c([2H])c([2H])c(C#Cc2ccc([C@@H]3S[C@H](CC(=O)NC([2H])([2H])C([2H])([2H])c4ccc(OC([2H])([2H])[2H])c(OC)c4)C(=O)N3c3cccc(C(N)=O)c3)cc2)c([2H])c1[2H] [Compound 13, 3-((2S,5R)-4-oxo-5-(2-oxo-2-((1,1,2,2-d4-2-(3-ethoxy-4-methox-d3-yphenyl)ethyl)amino)ethyl)-2-(4-((phenyl-d5)ethynyl)phenyl)thiazolidin-3-yl)benzamide]",Emax,FSHR,97%
same,EC50,FSHR,1.3 nM
